{"source": "patent US12543737B2", "about": "“Herbicidal composition and method for controlling weeds” (SUMITOMO CHEMICAL COMPANY, LIMITED, priority 2020, dated 2026)", "key": {"[1]": {"system": "waterhemp (Amaranthus tuberculatus=Amaranthus rudis=Amaranthus tamariscinus) having the substitution of an amino acid residue of G210Δ in PPX2", "test": "Herbicidal effect, foliar spray pot test in greenhouse (Example 9)", "format": "in vivo", "conditions": "spray volume 216 L/ha, 28 days after spraying, rating 0 to 100"}, "[2]": {"system": "waterhemp (Amaranthus tuberculatus=Amaranthus rudis=Amaranthus tamariscinus) having the substitution of an amino acid residue of G210Δ in PPX2", "test": "Herbicidal effect, foliar spray pot test in greenhouse (Example 10)", "format": "in vivo", "conditions": "216 L/ha, 28 days after spraying, rating 0 to 100"}, "[3]": {"conditions": "glufosinate-ammonium 350 g/ha alone"}}, "data": [{"smiles": "CCOC(=O)COc1ncccc1Oc1cc(-n2c(=O)cc(C(F)(F)F)n(C)c2=O)c(F)cc1Cl", "note": "[compound X, epyrifenacil]", "values": [{"measurement": "Herbicidal effect", "setting": "[1]; compound X 0.5 g/ha alone", "result": 17}, {"measurement": "Herbicidal effect", "setting": "[1]; compound X 1 g/ha alone", "result": 18}]}, {"smiles": "C#CCN1C(=O)C(F)(F)Oc2cc(F)c(-n3c(=O)n(C)c(=S)n(C)c3=O)cc21", "note": "[trifludimoxazin]", "values": [{"measurement": "Herbicidal effect", "setting": "[2]; trifludimoxazin 0.5 g/ha alone", "result": 10}]}, {"smiles": "CP(=O)(O)CCC(N)C(=O)O", "note": "(centres unmarked) [glufosinate-ammonium]", "values": [{"measurement": "Herbicidal effect", "setting": "[1]; [3]", "result": 37}, {"measurement": "Herbicidal effect", "setting": "[2]; [3]", "result": 37}]}]}
